ChEMBL document CHEMBL3352261, “Discovery of inhibitors of the mitotic kinase TTK based on N-(3-(3-sulfamoylphenyl)-1H-indazol-5-yl)-acetamides and carboxamides” (Bioorg Med Chem, 2014)

Tests used:
[1] = molecular target: T1, Dual specificity protein kinase TTK (Homo sapiens, UniProt P33981); assay: Inhibition of SUMO-tagged human TTK (1-275 residues) compound pre-incubated for 15 mins prior ATP addition by MBP-based assay
T1 sequence (P33981 whole entry): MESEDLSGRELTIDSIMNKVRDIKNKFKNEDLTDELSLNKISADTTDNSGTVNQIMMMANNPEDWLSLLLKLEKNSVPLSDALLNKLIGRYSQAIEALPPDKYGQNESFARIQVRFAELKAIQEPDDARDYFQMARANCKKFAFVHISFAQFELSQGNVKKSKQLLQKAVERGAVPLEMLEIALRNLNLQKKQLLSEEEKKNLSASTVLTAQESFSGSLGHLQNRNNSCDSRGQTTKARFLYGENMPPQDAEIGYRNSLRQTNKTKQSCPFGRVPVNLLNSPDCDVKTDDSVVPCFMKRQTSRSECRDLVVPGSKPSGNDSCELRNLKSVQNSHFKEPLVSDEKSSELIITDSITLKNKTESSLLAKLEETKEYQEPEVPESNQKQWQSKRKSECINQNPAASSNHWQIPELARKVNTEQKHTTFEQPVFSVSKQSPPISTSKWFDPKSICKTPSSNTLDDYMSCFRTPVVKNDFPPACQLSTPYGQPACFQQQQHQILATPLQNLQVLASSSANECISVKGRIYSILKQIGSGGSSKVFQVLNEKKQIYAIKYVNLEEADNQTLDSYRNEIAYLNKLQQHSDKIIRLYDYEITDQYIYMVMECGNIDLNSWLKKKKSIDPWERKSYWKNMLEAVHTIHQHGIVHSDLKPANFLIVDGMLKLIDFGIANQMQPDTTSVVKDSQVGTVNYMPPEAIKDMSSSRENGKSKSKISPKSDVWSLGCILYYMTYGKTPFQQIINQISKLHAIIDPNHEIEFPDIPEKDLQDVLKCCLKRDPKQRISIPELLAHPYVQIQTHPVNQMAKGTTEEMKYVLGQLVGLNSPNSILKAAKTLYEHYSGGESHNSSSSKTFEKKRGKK

[2] = Growth inhibition of human HCT116 cells after 5 days by SRB assay; type: functional; details: HCT-116, 120 h
MDA-MB-468 = assay: Growth inhibition of human MDA-MB-468 cells after 5 days by SRB assay; type: functional; details: MDA-MB-468, 120 h
A549 = assay: Growth inhibition of human A549 cells after 5 days by SRB assay; type: functional; details: A549, 120 h
[3] = molecular target: T1, Dual specificity protein kinase TTK; assay: Inhibition of GST-fused full length human TTK compound pre-incubated for 15 mins prior ATP addition by MBP-based assay

IC50 [1] [nM] | GI50 (MDA-MB-468) [nM] | GI50 (A549) [nM] | IC50 [3] [nM] | SMILES | GI50 [2] [nM]
980 |  |  |  | NS(=O)(=O)c1cccc(-c2n[nH]c3ccc(NC(=O)CCc4ccccc4)cc23)c1 | > 50000
39 |  |  |  | NS(=O)(=O)c1cccc(-c2n[nH]c3ccc(NC(=O)Cc4ccccc4)cc23)c1 | 21000
4300 |  |  |  | NS(=O)(=O)c1cccc(-c2n[nH]c3cc(NC(=O)c4cccs4)ccc23)c1 | 
600 |  |  |  | COc1ccc2[nH]nc(-c3cccc(S(N)(=O)=O)c3)c2c1 | 
30 | 3200 | 2400 |  | CO[C@@H](C(=O)Nc1ccc2[nH]nc(-c3cccc(S(N)(=O)=O)c3)c2c1)c1ccccc1 | 850
> 5000 |  |  |  | Cc1ccccc1NC(=O)Cc1ccc2[nH]nc(-c3cccc(S(N)(=O)=O)c3)c2c1 | > 50000
1600 |  |  | 2600 | NS(=O)(=O)c1cccc(-c2n[nH]c3ccccc23)c1 | 
250 |  |  |  | CN(Cc1ccccc1)C(=O)c1ccc2[nH]nc(-c3cccc(S(N)(=O)=O)c3)c2c1 | 180
1900 |  |  | 1800 | NS(=O)(=O)c1cccc(-c2n[nH]c3cccc(Cl)c23)c1 | 
580 |  |  |  | NS(=O)(=O)c1cccc(-c2n[nH]c3ccc(OCc4ccccc4)cc23)c1 | 
10 | 690 | 400 |  | NS(=O)(=O)c1cccc(-c2n[nH]c3ccc(NC(=O)C(c4ccccc4)N4CCCCC4)cc23)c1 (racemic) | 270
11 | 840 | 830 |  | CN(C)[C@H](C(=O)Nc1ccc2[nH]nc(-c3cccc(S(N)(=O)=O)c3)c2c1)c1ccccc1 | 520
35 |  |  |  | NS(=O)(=O)c1cccc(-c2n[nH]c3ccc(C(=O)NC4(c5ccccc5)CC4)cc23)c1 | 3300
90 |  |  |  | NS(=O)(=O)c1cccc(-c2n[nH]c3ccc(C(=O)NCc4ccccc4)cc23)c1 | 1800
16 |  |  |  | NS(=O)(=O)c1cccc(-c2n[nH]c3ccc(C(=O)NC(c4ccccc4)C4CC4)cc23)c1 (racemic) | 
18000 |  |  |  | CC(=O)Nc1ccc2c(-c3cccc(S(N)(=O)=O)c3)n[nH]c2c1 | 
 |  |  | 12000 | O=Cc1ccc2c(-c3cccnc3)n[nH]c2c1 | 
90 |  |  |  | NS(=O)(=O)c1cccc(-c2n[nH]c3ccc(NC(=O)Cc4ccccn4)cc23)c1 | 6890
24 |  |  |  | CCC(C(=O)Nc1ccc2[nH]nc(-c3cccc(S(N)(=O)=O)c3)c2c1)c1ccccc1 (racemic) | 1300
1400 |  |  |  | NS(=O)(=O)c1cccc(-c2n[nH]c3cccc(-c4c(F)cccc4F)c23)c1 | 

IC50 [1] [nM] | GI50 (MDA-MB-468) [nM] | GI50 (A549) [nM] | IC50 [3] [nM] | SMILES | GI50 [2] [nM]
14 | 1400 | 800 |  | CCOC(C(=O)Nc1ccc2[nH]nc(-c3cccc(S(N)(=O)=O)c3)c2c1)c1ccccc1 (racemic) | 400
710 |  |  |  | NS(=O)(=O)c1cccc(-c2n[nH]c3ccc(NS(=O)(=O)Nc4ccccc4)cc23)c1 | 6890
61 |  |  |  | NS(=O)(=O)c1cccc(-c2n[nH]c3ccc(NC(=O)C(c4ccccc4)C4CCCCC4)cc23)c1 (racemic) | 430
4 |  |  |  | NS(=O)(=O)c1cccc(-c2n[nH]c3ccc(C(=O)NC(c4ccsc4)C4CC4)cc23)c1 (racemic) | 610
 |  |  | 5000 | N#Cc1ccc2c(/C=C/c3ccncc3)n[nH]c2c1 | 
33 |  |  |  | NS(=O)(=O)c1cccc(-c2n[nH]c3ccc(C(=O)NCc4cccs4)cc23)c1 | 1800
11000 |  |  |  | CNC(=O)c1ccc2c(-c3cccc(S(N)(=O)=O)c3)n[nH]c2c1 | 
280 |  |  |  | NS(=O)(=O)c1cccc(-c2n[nH]c3ccc(NC(=O)c4cccs4)cc23)c1 | 
4300 |  |  |  | NS(=O)(=O)c1cccc(-c2n[nH]c3ccc(-c4ccccc4)cc23)c1 | 
53 |  |  |  | NS(=O)(=O)c1cccc(-c2n[nH]c3ccc(NC(=O)C(c4ccccc4)C4CCCC4)cc23)c1 (racemic) | 630
 |  |  | 17000 | NC(=O)c1cccc(-c2n[nH]c3cccc(Cl)c23)c1 | 
2600 |  |  |  | CCc1cccc(CC)c1NS(=O)(=O)Nc1ccc2[nH]nc(-c3cccc(S(N)(=O)=O)c3)c2c1 | 50000
2300 |  |  |  | COc1cccc2[nH]nc(-c3cccc(S(N)(=O)=O)c3)c12 | 
16 |  |  |  | NS(=O)(=O)c1cccc(-c2n[nH]c3ccc(NC(=O)Cc4cccs4)cc23)c1 | 2900
 |  |  | 2500 | Oc1c2ccccc2c2c3c(cccc13)N=N2 [SP-600125] | 
380 |  |  |  | NS(=O)(=O)c1cccc(-c2n[nH]c3ccc(OCCc4cccs4)cc23)c1 | 750
 |  |  | 370 | COc1cc(N2CCC(O)CC2)ccc1Nc1nc(Nc2ccccc2S(=O)(=O)C(C)C)c2cc[nH]c2n1 | 
340 |  |  |  | NS(=O)(=O)c1cccc(-c2n[nH]c3ccc(NS(=O)(=O)c4cccs4)cc23)c1 | 3400
46 |  |  |  | CC(C)C(C(=O)Nc1ccc2[nH]nc(-c3cccc(S(N)(=O)=O)c3)c2c1)c1ccccc1 (racemic) | 
 |  |  | 18000 | NS(=O)(=O)c1ccc(-c2n[nH]c3cccc(Cl)c23)cc1 | 

IC50 [1] [nM] | GI50 (MDA-MB-468) [nM] | GI50 (A549) [nM] | IC50 [3] [nM] | SMILES | GI50 [2] [nM]
80 |  |  |  | CCc1cccc(CC)c1CNC(=O)c1ccc2[nH]nc(-c3cccc(S(N)(=O)=O)c3)c2c1 | 700
5400 |  |  |  | NS(=O)(=O)c1cccc(-c2n[nH]c3cc(-c4ccccc4)ccc23)c1 | 
26 | 2200 | 2500 |  | COC(C(=O)Nc1ccc2[nH]nc(-c3cccc(S(N)(=O)=O)c3)c2c1)c1ccccc1 (racemic) | 1060
340 |  |  |  | NS(=O)(=O)c1cccc(-c2n[nH]c3ccc(NC(=O)Cc4ccncc4)cc23)c1 | 50000
17 |  |  |  | CCc1cccc(CC)c1CC(=O)Nc1ccc2[nH]nc(-c3cccc(S(N)(=O)=O)c3)c2c1 | 180
47 |  |  |  | NS(=O)(=O)c1cccc(-c2n[nH]c3ccc(C(=O)NC(c4ccccc4)C4CCCCC4)cc23)c1 (racemic) | 810
 |  |  | > 50000 | NCc1cccc(-c2n[nH]c3cccc(Cl)c23)c1 | 
15 | 1300 | 3400 |  | CN(C)[C@@H](C(=O)Nc1ccc2[nH]nc(-c3cccc(S(N)(=O)=O)c3)c2c1)c1ccccc1 | 1100
25 |  |  |  | Cc1ccccc1CC(=O)Nc1ccc2[nH]nc(-c3cccc(S(N)(=O)=O)c3)c2c1 | 1800
8.9 | 350 | 230 |  | NS(=O)(=O)c1cccc(-c2n[nH]c3ccc(NC(=O)C(c4ccccc4)N4CCCC4)cc23)c1 (racemic) | 110
> 50000 |  |  |  | CCc1cccc(CC)c1NC(=O)N(C)c1ccc2[nH]nc(-c3cccc(S(N)(=O)=O)c3)c2c1 | > 50000
330 |  |  |  | Cc1cccc(CS(=O)(=O)Nc2ccc3[nH]nc(-c4cccc(S(N)(=O)=O)c4)c3c2)c1 | 28000
390 |  |  |  | NS(=O)(=O)c1cccc(-c2n[nH]c3ccc(NC(=O)Nc4ccccc4)cc23)c1 | 41000
26 | 2200 | 3600 |  | CO[C@H](C(=O)Nc1ccc2[nH]nc(-c3cccc(S(N)(=O)=O)c3)c2c1)c1ccccc1 | 800
310 |  |  |  | NS(=O)(=O)c1cccc(-c2n[nH]c3ccc(NC(=O)C4(c5ccccc5)CC4)cc23)c1 | 7300
18 |  |  |  | Cc1ccccc1CNC(=O)c1ccc2[nH]nc(-c3cccc(S(N)(=O)=O)c3)c2c1 | 1800
640 |  |  |  | CC(=O)Nc1ccc2[nH]nc(-c3cccc(S(N)(=O)=O)c3)c2c1 | 
550 |  |  |  | NS(=O)(=O)c1cccc(-c2n[nH]c3ccc(CNC(=O)c4ccccc4)cc23)c1 | 700
12 | 1400 | 1700 |  | CN(C)C(C(=O)Nc1ccc2[nH]nc(-c3cccc(S(N)(=O)=O)c3)c2c1)c1ccccc1 (racemic) | 660
